Experimental data: US20140128357A1, “METHODS OF PRODUCING AND USING BRASSINOSTEROIDS TO PROMOTE GROWTH, REPAIR AND MAINTENANCE OF SKELETAL MUSCLE AND SKIN” (Rutgers University, priority 2010, published 2014)
Like-named read-outs stand apart in the source and are kept apart here.

Tests used:
Type in all cases: in vivo, rat
[1] = Body composition and blood biochemistry, rats on normal diet, 24 d oral HB (Protocol 1); conditions: for Bone mineral content / Fat mass / Lean mass / change in fat mass vs control / increase in lean body mass vs control: DEXA
Experimental: (§1) Six-week-old male Wistar rats (180-220 g, Charles River Laboratories, MA) were housed in individual chambers in a room maintained at a constant room temperature with 12 h light-dark cycle. Animals had free access to food and water. Animals were allowed to adapt to new conditions for 7 d and handling the animals was carried out daily during this time to reduce the stress of physical manipulation. Animals were randomized into groups according to bodyweight 1 d prior to dosing.
The body weight of each animal and the total amount of food consumed (accounted for spillage) were recorded every 2 d for the duration of the experiment. At the end of the experiment, blood was collected by heart puncture after CO2 inhalation and animal body composition was assessed by DEXA dual-energy X-ray absorptiometry analysis using a Lunar Prodigy Densitometer (GE Healthcare, Waukesha, Wis.). At necropsy, tissue weights were recorded. Tissue samples were collected by snap-freezing in liquid nitrogen and stored at −80° C. for further studies. Total RNA was isolated using Trizol, its quantity and purity were determined using a NanoDrop (Nanodrop Technologies, Wilmington, Del.).
(§2) Blood samples were taken from overnight-fasted animals by heart puncture, collected in EDTA-coated tubes, centrifuged 1,500 g for 20 min, and separated plasma was stored at −80° C. until analysis. Glucose was measured in blood samples using a Lifescan glucometer (Johnson and Johnson, New Brunswick, N.J.). […] Plasma triglycerides and total cholesterol were measured by enzymatic colorimetric assays (Wako Diagnostics, Richmond, Va.). Total testosterone in plasma samples was quantified by an ELISA assay (DRG Diagnostics, Marburg, Germany).

[2] = Body composition and blood biochemistry, rats on high-protein diet, 24 d oral HB (Protocol 2); conditions: for Bone mineral content / Fat mass / Lean mass: DEXA
Experimental: as §1
Protocol 2: Three groups of Wistar rats (n=8), fed a high-protein diet containing 39.4% protein, 10.0% fat, 4.3% fiber, and 37.0% carbohydrates, resulting in 3.93 kcal/g energy value (#5779 diet, Testdiet/Purina, Richmond, Ind.), were gavaged daily for 24 d with 1 ml of vehicle (5% DMSO in corn oil), 20 or 60 mg/kg HB. All procedures and measurements followed protocol 1.
as §2

[3] = tested on: orchiectomized (ORX) Wistar rats; conditions: for Glans penis weight: listed as HB
Experimental: Protocol 3: Four-week-old sham-operated (sham, n=6) or orchiectomized (ORX, n=24) Wistar rats (Charles River Laboratories, MA) were subject to a 10-d Hershberger assay (surgically castrated peri-pubertal adult model) under the following experimental conditions: sham, ORX (vehicle), ORX (20 mg/kg HB orally), ORX (60 mg/kg HB orally), and ORX (0.4 mg/kg testosterone propionate subcutaneously, serving as a positive control for the assay). All procedures and measurements followed protocol 1, except no body composition measurements were taken. Limb grip strength was measured for control animals and animals receiving 60 mg/kg HB using a digital force gauge (Wagner Instruments model FDV5) by Product Safety Laboratories (Dayton, N.J.). After the rats were allowed to grip the screen with paws, the animals were quickly pulled until the paws released from the screen, and the required release force was recorded. Three trials on each animal were performed in triplicate, and significance was determined using Student's t test (p<0.05). In addition to the gastrocnemius muscle, androgen-sensitive tissues (ventral prostate, seminal vesicles, bulbocavernosus/levator ani muscle complex, glans penis, and Cowper's gland) were dissected out and weighed.
The muscle samples for histochemical analysis were taken from the middle section of the mixed-fiber gastrocnemius muscle of the castrated animals treated according to protocol 4 (described herein above) to allow for the observation of differences in fiber type distribution and cross-section area associated with ORX and HB treatments. Serial transverse cryosections (10 μm) were prepared from each muscle and were analyzed for myofibrillar adenosine triphosphatase (mATPase) histochemistry after alkaline (pH=9.5) preincubation. Fiber cross-section area and enzyme activity levels were determined from digitized images of the muscle cross-sections that were stored as gray-level pictures using ImageJ software (National Institutes of Health, Bethesda, Md.). […]

[4] = ORX rats, 20 mg/kg oral daily 10 d
[5] = ORX rats, 60 mg/kg oral daily 10 d
[6] = ORX rats, 60 mg/kg oral per day 10 days

Question: With `CC[C@@H](C(C)C)[C@H](O)[C@@H](O)[C@@H](C)[C@H]1CC[C@H]2[C@@H]3COC(=O)[C@H]4C[C@H](O)[C@H](O)C[C@]4(C)[C@H]3CC[C@]12C` [Compound 1, (22S,23S,24S)-2α,3α,22,23-tetrahydroxy-24 ethyl-β-homo-7-oxo-5α-cholestane-6-one] as the molecule, how does the Body weight ([1]; 20 mg/kg oral daily 24 d) read?
Answer: Its Body weight is 324.3 ± 11.5 g.

Question: What about the Body weight gain ([1]; 20 mg/kg oral daily 24 d) of the same molecule?
Answer: The Body weight gain was 126.6 ± 7.1 g.

Question: And the Gastrocnemius muscle ([1]; 20 mg/kg oral daily 24 d)?
Answer: The Gastrocnemius muscle was 2.07 ± 0.06 g.

Question: And the “increase in gastrocnemius muscle mass” value ([1]; 20 mg/kg oral daily 24 d)?
Answer: The value was 15.6%.

Question: What about the “increase of total body weight gain relative to initial body weight, compared with vehicle-treated controls” value ([1]; 20 mg/kg oral daily 24 d) of the same molecule?
Answer: Its value is 18.3%.

Question: And the Bone mineral content ([1]; 20 mg/kg oral daily 24 d)?
Answer: Its Bone mineral content is 7.0 ± 0.3 g.

Question: And the Fat mass ([1]; 20 mg/kg oral daily 24 d)?
Answer: Its Fat mass is 49.0 ± 4.3 g.

Question: What about the Lean mass ([1]; 20 mg/kg oral daily 24 d) of the same molecule?
Answer: The Lean mass was 268.3 ± 9.0 g.

Question: And the “change in fat mass vs control” value ([1]; 20 mg/kg oral daily 24 d)?
Answer: Its value is −3.9%.

Question: What about the “increase in lean body mass vs control” value ([1]; 20 mg/kg oral daily 24 d) of the same molecule?
Answer: The value was 7.0%.

Question: What about the Body weight ([1]; 60 mg/kg oral daily 24 d) of the same molecule?
Answer: Its Body weight is 342.3 ± 4.9 g.

Question: And the Body weight gain ([1]; 60 mg/kg oral daily 24 d)?
Answer: Its Body weight gain is 135.7 ± 9.4 g.

Question: And the Gastrocnemius muscle ([1]; 60 mg/kg oral daily 24 d)?
Answer: Its Gastrocnemius muscle is 2.13 ± 0.12 g.

Question: And the “increase in gastrocnemius muscle mass” value ([1]; 60 mg/kg oral daily 24 d)?
Answer: Its value is 19.0%.

Question: And the “increase of total body weight gain relative to initial body weight, compared with vehicle-treated controls” value ([1]; 60 mg/kg oral daily 24 d)?
Answer: The value was 26.8%.

Question: And the Bone mineral content ([1]; 60 mg/kg oral daily 24 d)?
Answer: The Bone mineral content was 7.4 ± 0.1 g.

Question: What about the Fat mass ([1]; 60 mg/kg oral daily 24 d) of the same molecule?
Answer: The Fat mass was 48.5 ± 3.8 g.

Question: What about the Lean mass ([1]; 60 mg/kg oral daily 24 d) of the same molecule?
Answer: The Lean mass was 286.5 ± 4.3 g.

Question: What about the “change in fat mass vs control” value ([1]; 60 mg/kg oral daily 24 d) of the same molecule?
Answer: Its value is −4.9%.

Question: What about the “increase in lean body mass vs control” value ([1]; 60 mg/kg oral daily 24 d) of the same molecule?
Answer: The value was 14.2%.

Question: What about the Body weight ([2]; 20 mg/kg oral daily 24 d) of the same molecule?
Answer: The Body weight was 337.6 ± 6.4 g.

Question: What about the Body weight gain ([2]; 20 mg/kg oral daily 24 d) of the same molecule?
Answer: The Body weight gain was 98.3 ± 5.2 g.

Question: And the Gastrocnemius muscle ([2]; 20 mg/kg oral daily 24 d)?
Answer: Its Gastrocnemius muscle is 1.98 ± 0.01 g.

Question: What about the Bone mineral content ([2]; 20 mg/kg oral daily 24 d) of the same molecule?
Answer: Its Bone mineral content is 7.5 ± 0.2 g.

Question: What about the Fat mass ([2]; 20 mg/kg oral daily 24 d) of the same molecule?
Answer: Its Fat mass is 68.6 ± 3.1 g.

Question: What about the Lean mass ([2]; 20 mg/kg oral daily 24 d) of the same molecule?
Answer: Its Lean mass is 246.8 ± 7.4 g.

Question: What about the Body weight ([2]; 60 mg/kg oral daily 24 d) of the same molecule?
Answer: The Body weight was 335.8 ± 5.1 g.

Question: And the Body weight gain ([2]; 60 mg/kg oral daily 24 d)?
Answer: Its Body weight gain is 91.1 ± 3.2 g.

Question: And the Gastrocnemius muscle ([2]; 60 mg/kg oral daily 24 d)?
Answer: The Gastrocnemius muscle was 2.17 ± 0.03 g.

Question: What about the Bone mineral content ([2]; 60 mg/kg oral daily 24 d) of the same molecule?
Answer: The Bone mineral content was 7.4 ± 0.1 g.

Question: And the Fat mass ([2]; 60 mg/kg oral daily 24 d)?
Answer: The Fat mass was 61.2 ± 3.8 g.

Question: What about the Lean mass ([2]; 60 mg/kg oral daily 24 d) of the same molecule?
Answer: Its Lean mass is 258.6 ± 2.7 g.

Question: And the “increase in gastrocnemius muscle mass” value ([3]; ORX rats, 20 mg/kg oral 10 d)?
Answer: The value was 13.8%.

Question: What about the Bulbocavernosus/levator ani weight [3, 4] of the same molecule?
Answer: The Bulbocavernosus/levator ani weight was 109.2 ± 8.6 mg.

Question: And the “Cowper's gland weight” value [3, 4]?
Answer: Its value is 11.2 ± 0.7 mg.

Question: And the Seminal vesicles weight [3, 4]?
Answer: Its Seminal vesicles weight is 37.3 ± 3.5 mg.

Question: What about the Ventral prostate weight [3, 4] of the same molecule?
Answer: The Ventral prostate weight was 26.0 ± 2.5 mg.

Question: What about the Glans penis weight ([3]; ORX rats, 20 mg/kg oral daily 10 d, 20 mg/kg) of the same molecule?
Answer: Its Glans penis weight is 55.3 ± 1.7 mg.

Question: And the “increase in gastrocnemius muscle mass” value ([3]; ORX rats, 60 mg/kg oral 10 d)?
Answer: Its value is 10.3%.

Question: What about the Bulbocavernosus/levator ani weight [3, 5] of the same molecule?
Answer: Its Bulbocavernosus/levator ani weight is 137.7 ± 9.9 mg.

Question: And the “Cowper's gland weight” value [3, 5]?
Answer: Its value is 12.5 ± 1.1 mg.

Question: And the Seminal vesicles weight [3, 5]?
Answer: The Seminal vesicles weight was 34.7 ± 3.3 mg.

Question: And the Ventral prostate weight [3, 5]?
Answer: The Ventral prostate weight was 23.0 ± 2.4 mg.

Question: And the Glans penis weight ([3]; ORX rats, 60 mg/kg oral daily 10 d, 60 mg/kg)?
Answer: Its Glans penis weight is 59.6 ± 1.6 mg.

Question: What about the “Change in grip strength of lower extremities” value [3, 6] of the same molecule?
Answer: The value was 0.0851 ± 0.0197 kg.

Question: What about the “change in grip strength for front limbs” value [3, 6] of the same molecule?
Answer: The value was 0.2711 ± 0.0660 kg.

Question: And the “increase in total number of type IIa and type IIb fibers” value ([3]; gastrocnemius, 20 or 60 mg/kg per day 10 d, independent of dose)?
Answer: Its value is “approximately 60%”.

Question: And the “androgenic activity in the Hershberger assay” value ([3]; rat, in vivo)?
Answer: The value was “very low androgenic activity”.
